From patent publication US20080107603A1, “Neuroprotectant methods, compositions, and screening methods thereof” (priority 2002, published 2008)

Key:
[1] = system: retinal neurons in the retinal ganglion cell layer; experiment: NMDA retinal model (intravitreal NMDA, cell counts in retinal wholemounts); format: in vivo, Sprague-Dawley rats
Protocol: Young adult female Sprague-Dawley rats were used in the present experiments. The animals were supplied by Harlan, England and maintained in the Comparative Biology Unit at Charing Cross Hospital Campus, Imperial College. Animal procedures used were in accordance to regulations of Home Office, UK. The animals were divided into four groups. The first group consists of 6 normal rats that received no treatment. A further 9 animals were anesthetized with. Hypnorm™ (0.02 mg of fentanyl citrate and 0.54 mg fluanisone/100 g body weight) and Hypnovel™ (0.27 mg midazolam/100 g body weight) before they received unilateral intravitreal injection of 5 μl of 4 mM NMDA to the vitreous body of the left eyes, with the uninjected right eyes served as controls. Six of the experimental animals injected with NMDA received an additional intraperitoneal injection of L-ergothioneine 0.2 ml of 70 mg/ml (n=3), or phosphate buffer saline (PBS) as vehicle control 24 h and 30 min before injection of NMDA.
Further intraperitoneal injection of L-ergothioneine, or PBS was performed at 1 h, 24 h, 48 h and 72 h time points, and 3 injections per week for another three weeks. Six weeks after injection of NMDA, all animals were anaesthetized deeply again and perfused with physiological saline followed by 4% paraformaldehyde in phosphate buffer (pH 7.4). The eyeballs were collected in the same fixative and post-fixed for another half an hour before the retinas were dissected out in PBS. For each retina, four radial cuts were made before the retinas were flatly mounted onto gelatin-coated slides, and air-dried slowly in a moist chamber for 2-3 days.
The retinal whole-mounts were then stained for cresyl violet and cover slipped. Analysis was performed under a Wild microscope equipped with a camera lucida drawing tube. The number of retinal neurons in the retinal ganglion cell layer was counted and cell sizes measured at a magnification of 300× and in an area of 150×150 μm in the central, intermediate and peripheral parts of the four retinal quadrants. The neurons counted were divided into two groups with somata smaller than 6 μm, or equal to or larger than 6 μm in diameter. The majority of larger neurons are retinal ganglion cells while smaller somata are primarily non-ganglion cells or displaced amacrine cells (Perry (1981) Neuroscience 6:931-944). The numbers of cells were: counted in a total of 12 fields of individual retinas an analyzed statistically. The data is expressed as mean±S.E.M. Differences between values were compared by one-way analysis of variance (ANOVA).

PC12 cells [2] = experiment: Mitochondrial membrane potential (ΔΨm) by TMRE fluorescence; format: cell-based, Rat; conditions: 25 μM Aβ25-35; pretreatment of EGT (0.5 mM, 1 mM)
Protocol: To measure the mitochondrial membrane potential (ΔΨm), the lipophilic cationic probe TMRE was used. After treatment with Aβ25-35 (25 μM) for 24 h in the presence or absence of EGT, cells (1×10^4 cells/1 ml in 4-well chamber) were rinsed with PBS, and TME (150 nM) was loaded. After 30 min incubation at 37° C., cells were examined under a confocal microscope (LEICA TCS SP).

PC12 cells [3] = experiment: Cell death induced by peroxynitrite generating SIN-1 (MTT); format: cell-based, Rat; conditions: MTT reduction assay
Protocol: The MTT assay is a sensitive measurement of the normal metabolic status of cells, particularly that of mitochondria, which reflects early cellular redox changes. After incubation, cells were treated with the MTT solution (final concentration, 1 mg/ml) for 2 h. The dark blue formazan crystals formed in intact cells were dissolved in DMSO, and absorbance at 570 nm was measured with a microplate reader. Results were expressed as the percentage (%) of MTT reduction, assuming that the absorbance of control cells was 100%.

Bax and Bcl-XL = experiment: Western blot, levels of Bax and Bcl-XL; format: cell-based, Rat; conditions: 25 μM Aβ25-35, 36 h
Protocol: After treatment, cells (1×10^7 cells/7 ml in 100φ dish) were collected and washed with PBS. After centrifugation, cell lysis was carried out at 4° C. by vigorous shaking for 15 min in RIPA buffer (150 mM NaCl, 1% NP-40, 0.5% sodium deoxycholate, 0.1% SDS, 50 mM Tris-HCl (pH 7.4), 50 mM glycerphosphate, 20 mM NaF, 20 mM EGTA, 1 mM DTT, 1 mM Na3VO4 and protease inhibitors). After centrifugation at 15,000 rpm for 15 min, supernatant was separated and stored at −70° C. until use. The protein concentration was determined by using the bicinchrinic acid (BCA) protein assay kit (Pierce, Rockford, Ill., USA). After addition of sample loading buffer, protein samples were electrophoresed on a 12.5% SDS-polyacrylamide gel. Proteins were transferred to polyvinylidene difluoride blots at 300 mA for 3 h. The blots were blocked for 1 h at room temperature in fresh blocking buffer (0.1% Tween-20 in Tris-buffered saline, pH 7.4 containing 5% non-fat dried milk). Dilutions (1:1000) of primary anti-poly(ADP-ribose)polymerase (PARP), anti-Bcl-XL and anti-Bax antibodies were made in PBS with 3% non-fat dry milk. Following three washes with PBST (PBS and 0.1% Tween-20), the blots were incubated with horseradish peroxidase-conjugated secondary antibodies in PBS with 3% non-fat dry milk for 1 h at room temperature. […]

[4] = NMDA-injected retina, L-ergothioneine i.p. 0.2 ml of 70 mg/ml, 6 weeks after NMDA
[5] = uninjected control eyes of L-ergothioneine treated animals

In the case of `C[N+](C)(C)[C@@H](Cc1c[nH]c(=S)[nH]1)C(=O)[O-]` [L-ergothioneine, 2-mercaptohistidine trimethylbetaine], the neuroprotective effect ([1]; NMDA retinal model, versus PBS) is reported as “significant neuroprotective effect”, the “loss of ganglion cells” value [1, 4] is reported as 44% and the “loss of small or non-ganglion cells” value [1, 4] is reported as 31%. For the same compound, the “loss of ganglion cells” value [1, 5] was 7%, the “loss of non-ganglion cells” value [1, 5] was 4% and the “Aβ25-35-induced dissipation of ΔΨm” value (PC12 cells [2]) was “significantly blocked”. For the same compound, the “cytotoxicity induced by the peroxynitrite releasing compound SIN-1” value (PC12 cells [3]) was “selectively protected” and the “ratio of Bax to Bcl-XL” value (Bax and Bcl-XL) was “substantially reduced”.
